Measured values taken from patent US20030175366A1, “Plant Extracts and Methods of Treating Skin Therewith” (priority 2000, published 2003).

Key:
[1] = test system: glucose-6-phosphate dehydrogenase in human fibroblasts; test: G6PDH activity in human fibroblasts (in vitro determination of the enzymatic activity); type: cell-based; details: control = 100; for G6PDH activity after 3 days: 3 days incubation
Method: The G6PDH activity was determined in accordance with the microprocess described by Garidelli de Quincenet in Annual Dermatol. Venereol. 107(12), 1163-1170 (1980). The G6PDH activity was determined in accordance with the process described by Natsuko Okada and Yukio Kitano in: Arch. Dermatol. Res., 271(3): 341-346, 1981 by in vitro determination of the enzymatic activity of the glucose-6-phosphate dehydrogenase in human fibroblasts.
(§1) The DNA content was determined in accordance with the method described by Desaulniers in Toxic. In vitro 12(4), 409-422 (1998). The incubation time of the fibroblasts was in each case 3 days and 6 days. In each case, the average of 4 experiments with triple determination is given.

human fibroblasts = test: DNA content of the fibroblasts; type: cell-based; details: control = 100; for DNA content after 3 days: 3 days incubation
Method: as §1

[2] = conc. 0.00003 % by wt., 6 days incubation

Compound	G6PDH activity after 3 days ([1]; conc. 0.005 % by wt.)	DNA content after 3 days (human fibroblasts; conc. 0.005 % by wt.)	G6PDH activity after 3 days ([1]; conc. 0.00003 % by wt.)	G6PDH activity after 6 days [1, 2]	DNA content after 3 days (human fibroblasts; conc. 0.00003 % by wt.)	DNA content after 6 days (human fibroblasts; [2])
COc1cc2c(cc1O)C[C@H]1c3c(cc(O)c(OC)c3-2)CCN1C [Boldin index B3916 (Sigma), Boldin]	200 rel-%	97 rel-%				
CC1=C(/C=C/C(C)=C/C=C/C(C)=C/C(=O)O)C(C)(C)CCC1 [Retinoic acid]			134 rel-%	130 rel-%	76 rel-%	98 rel-%
CC1=C(/C=C/C(C)=C/C=C/C(C)=C/CO)C(C)(C)CCC1 [Retinol]	400 rel-%	95 rel-%				
